Laboratory results: the supplement of paper PMC13380429

What was measured:
Settings in all cases: 72 h
Calu-3 [1] = assay: drug sensitivity score (DSS) for viability; higher = more toxic; extreme values may be limits of the assay
HepG2 [2] = assay: as above
Vero E6 [3] = assay: as above
Caco-2 [4] = assay: as above
Calu-3 [5] = assay: relative viability EC50 (midpoint between 100% and the lowest measured viability); higher = less toxic
HepG2 [6] = assay: as above
Vero E6 [7] = assay: as above
Caco-2 [8] = assay: as above
Calu-3 [9] = assay: cell viability relative to DMSO; higher = less toxic
HepG2 [10] = assay: as above
Vero E6 [11] = assay: as above
Caco-2 [12] = assay: as above
U2OS [13] = assay: drug sensitivity score (DSS) for viability; higher = more toxic; extreme values may be limits of the assay
U2OS [14] = assay: relative viability EC50 (midpoint between 100% and the lowest measured viability); higher = less toxic
U2OS [15] = assay: cell viability relative to DMSO; higher = less toxic

| SMILES | drug sensitivity score (Calu-3 [1]) | drug sensitivity score (HepG2 [2]) | drug sensitivity score (Vero E6 [3]) | drug sensitivity score (Caco-2 [4]) | relative viability EC50 (Calu-3 [5]) [µM] | relative viability EC50 (HepG2 [6]) [µM] | relative viability EC50 (Vero E6 [7]) [µM] | relative viability EC50 (Caco-2 [8]) [µM] | cell viability (Calu-3 [9]; 1 nM) [%] | cell viability (Calu-3 [9]; 10 nM) [%] | cell viability (Calu-3 [9]; 100 nM) [%] | cell viability (Calu-3 [9]; 1000 nM) [%] | cell viability (Calu-3 [9]; 10000 nM) [%] | cell viability (HepG2 [10]; 1 nM) [%] | cell viability (HepG2 [10]; 10 nM) [%] | cell viability (HepG2 [10]; 100 nM) [%] | cell viability (HepG2 [10]; 1000 nM) [%] | cell viability (HepG2 [10]; 10000 nM) [%] | cell viability (Vero E6 [11]; 1 nM) [%] | cell viability (Vero E6 [11]; 10 nM) [%] | cell viability (Vero E6 [11]; 100 nM) [%] | cell viability (Vero E6 [11]; 1000 nM) [%] | cell viability (Vero E6 [11]; 10000 nM) [%] | cell viability (Caco-2 [12]; 1 nM) [%] | cell viability (Caco-2 [12]; 10 nM) [%] | cell viability (Caco-2 [12]; 100 nM) [%] | cell viability (Caco-2 [12]; 1000 nM) [%] | cell viability (Caco-2 [12]; 10000 nM) [%] | drug sensitivity score (U2OS [13]) | relative viability EC50 (U2OS [14]) [µM] | cell viability (U2OS [15]; 1 nM) [%] | cell viability (U2OS [15]; 10 nM) [%] | cell viability (U2OS [15]; 100 nM) [%] | cell viability (U2OS [15]; 1000 nM) [%] | cell viability (U2OS [15]; 10000 nM) [%] |
| --- | --- | --- | --- | --- | --- | --- | --- | --- | --- | --- | --- | --- | --- | --- | --- | --- | --- | --- | --- | --- | --- | --- | --- | --- | --- | --- | --- | --- | --- | --- | --- | --- | --- | --- | --- |
| COc1cccc(OC)c1OCCNC[C@H]1COc2ccccc2O1 [WB-4101] | 1.4 | 0 | 0 | 0.1 | > 10 | > 10 | > 10 | > 10 | 107 | 102 | 104 | 90.9 | 80.8 | 106 | 109 | 107 | 103 | 93.2 | 104 | 100 | 99.1 | 98.2 | 98.5 | 105 | 104 | 106 | 106 | 85.3 |  |  |  |  |  |  |  |
| CC(C)(OCc1nn(Cc2ccccc2)c2ccccc12)C(=O)O [bindarit] | 0 | 0 | 0 | 0 | > 10 | > 10 | > 10 | > 10 | 99 | 95.5 | 106 | 95.1 | 104 | 97.2 | 96.4 | 100 | 99.2 | 100 | 102 | 105 | 100 | 107 | 91.4 | 104 | 101 | 108 | 102 | 96.8 |  |  |  |  |  |  |  |
| CC(C)(C)c1ccc(CN2CCN(C(c3ccccc3)c3ccc(Cl)cc3)CC2)cc1 (stereo not drawn) [buclizine] | 0 | 2.2 | 0 | 0.2 | > 10 |  | > 10 | > 10 | 95.1 | 98.3 | 94.6 | 87.1 | 92.1 | 95.7 | 106 | 99.6 | 91.3 | 73.5 | 103 | 102 | 101 | 98.2 | 95.9 | 108 | 98.3 | 100 | 98.3 | 87.5 | 0 | > 10 | 96.7 | 97.6 | 96.8 | 98.9 | 90.8 |
| N#Cc1cnc2c(Cl)cc(NCc3cn(CCN4CCCCCC4)nn3)cc2c1Nc1ccc(F)c(Cl)c1 [cot-inhibitor-1] | 0 | 0.2 | 0 | 1.7 | > 10 | > 10 | > 10 |  | 104 | 103 | 99.5 | 96.9 | 96.2 | 95 | 107 | 96.7 | 120 | 80.6 | 94.2 | 102 | 92.2 | 96.9 | 103 | 92.1 | 99.7 | 105 | 98 | 67.8 | 0.7 | > 10 | 102 | 103 | 101 | 101 | 77 |
| O=C(O)c1cc(-c2ccc(F)cc2F)ccc1O [diflunisal] | 0 |  | 0 | 0 | > 10 |  | > 10 | > 10 | 103 | 109 | 109 | 99.6 | 95.7 |  |  |  |  |  | 103 | 100 | 92.9 | 98.4 | 97.1 | 93.3 | 105 | 93.9 | 105 | 104 |  |  |  |  |  |  |  |
| Oc1ccc(C2CNCCc3c2cc(O)c(O)c3Cl)cc1 (stereo not drawn) [fenoldopam] | 0 | 0 | 0 | 6.6 | > 10 | > 10 | > 10 |  | 96.5 | 110 | 105 | 109 | 107 | 104 | 102 | 95.3 | 105 | 94.8 | 101 | 99.4 | 97.3 | 103 | 96.7 | 96 | 87 | 80.6 | 76.6 | 73.7 | 0 | > 10 | 103 | 101 | 99.1 | 102 | 103 |
| COc1ccc2nc(NC(=O)Nc3ccccc3)sc2c1 [frentizole] | 0 | 3.7 | 0 | 1.2 | > 10 |  | > 10 | > 10 | 110 | 99.4 | 93.7 | 107 | 91.1 | 101 | 105 | 93.8 | 89.7 | 56.8 | 100 | 105 | 98.6 | 97.1 | 97.5 | 103 | 98.3 | 88 | 88.2 | 87.9 | 0 | > 10 | 95.7 | 97.2 | 97 | 95 | 95.3 |
| Cc1c(I)c(=O)n(-c2ccccc2)n1C [iodoantipyrine] | 0 | 0 | 0 | 0 | > 10 | > 10 | > 10 | > 10 | 105 | 106 | 96.1 | 93.7 | 93.2 | 94.7 | 102 | 95 | 102 | 91.2 | 98.8 | 93.3 | 96.9 | 95.3 | 101 | 107 | 104 | 94.8 | 99.4 | 98.7 |  |  |  |  |  |  |  |
| COC(=O)C1=C(C)NC(C)=C(C(=O)OCCN2CCN(C(c3ccccc3)c3ccccc3)CC2)C1c1cccc([N+](=O)[O-])c1 (stereo not drawn) [manidipine] | 0.8 | 0.3 | 0 | 2.5 | > 10 | > 10 | > 10 |  | 94.6 | 103 | 104 | 91.5 | 85.4 | 105 | 104 | 104 | 104 | 81.4 | 100 | 103 | 96.7 | 100 | 93.3 | 98.4 | 93.9 | 104 | 94.5 | 65.4 | 1.5 |  | 98.3 | 100 | 93.8 | 97.6 | 71.9 |
| CC(=O)Oc1c(C)cc(OCC(O)CNC(C)C)c(C)c1C (stereo not drawn) [metipranolol] | 0 | 1.5 | 1.6 | 1.3 | > 10 | > 10 | > 10 |  | 94.6 | 89.8 | 97.7 | 96.1 | 92.9 | 101 | 102 | 105 | 84 | 93.3 | 103 | 107 | 94.6 | 85.8 | 97.5 | 73.8 | 84.6 | 102 | 98.7 | 70.3 | 0 | > 10 | 99.1 | 97.3 | 96.2 | 93.9 | 93.8 |
| NCc1c[nH]c(=S)n1[C@H]1CCc2c(F)cc(F)cc2C1 [nepicastat] | 0 | 0 | 0 |  | > 10 | > 10 | > 10 |  | 87.7 | 95.3 | 98.6 | 103 | 97.6 | 100 | 95.2 | 93.8 | 102 | 96.2 | 105 | 104 | 106 | 96.7 | 108 |  |  |  |  |  | 0 | > 10 | 101 | 105 | 99 | 106 | 97.2 |
| O=c1[nH]c2ccccc2n1C1CCN(CCOc2ccccc2)CC1 [oxiperomide] | 0.1 | 1.9 | 0.7 | 0 | > 10 |  | > 10 | > 10 | 112 | 101 | 97.1 | 97.9 | 88.2 | 104 | 112 | 95.7 | 98.1 | 64.7 | 97.4 | 95.8 | 98.6 | 99.4 | 78.7 | 104 | 105 | 87.3 | 104 | 87.2 | 0 | > 10 | 98.9 | 108 | 100 | 99.8 | 91.6 |
| CCCCCCCCCCCCCCCC(=O)OC(CC(=O)[O-])C[N+](C)(C)C (stereo not drawn) [palmitoylcarnitine] | 0.6 | 0 | 1.1 | 0 | > 10 | > 10 |  | > 10 | 98.3 | 94.3 | 100 | 97 | 84.2 | 99.3 | 96.8 | 107 | 95.8 | 94.9 | 96.2 | 104 | 104 | 99.6 | 73 | 110 | 102 | 102 | 92.5 | 93 | 0 | > 10 | 103 | 104 | 99.9 | 100 | 102 |
| CCCOC(=O)c1ccccc1 [propyl-benzoate] | 0 | 0 | 0 |  | > 10 | > 10 | > 10 |  | 98.5 | 90.6 | 98.2 | 99.1 | 102 | 98.7 | 98.2 | 94.7 | 93 | 94.4 | 94.3 | 94.6 | 91.8 | 90.3 | 101 |  |  |  |  |  |  |  |  |  |  |  |  |
| COc1ccc2c(O[C@@H]3C[C@H]4C(=O)N[C@]5(C(=O)NS(=O)(=O)C6CC6)C[C@H]5/C=C\CCCCN(C)C(=O)[C@@H]4C3)cc(-c3nc(C(C)C)cs3)nc2c1C [simeprevir] | 0 | 0.4 | 0 | 1.1 | > 10 | > 10 | > 10 |  | 94.9 | 99.7 | 88.7 | 100 | 102 | 102 | 99.4 | 92.7 | 101 | 81.5 | 102 | 105 | 95.4 | 101 | 102 | 94.8 | 100 | 112 | 102 | 70.8 | 0 | > 10 | 104 | 98.8 | 99.9 | 99.4 | 105 |
| Nc1n[n+]([O-])c2ccccc2[n+]1[O-] [tirapazamine] | 0 | 2.8 | 0 | 0 | > 10 |  | > 10 | > 10 | 104 | 103 | 107 | 97.8 | 102 | 92.3 | 91.1 | 93.2 | 88.9 | 63.9 | 101 | 97.6 | 101 | 95.6 | 90.7 | 99.9 | 102 | 92.3 | 94.8 | 90.4 | 0 | > 10 | 100 | 98.9 | 99.1 | 97.8 | 99 |
